Test results from ChEMBL document CHEMBL6087385, “Synthesis and biological evaluation of Ribo 7-N/O/S pyrimidine 9-deaza C-nucleoside analogs as new antiviral agents for inhibiting HCV RNA-dependent RNA polymerases” (Eur J Med Chem, 2024).

How the values were obtained:
Hepatitis C virus [1] = test: Antiviral activity against HCV genotype 1a infected in GLuc-1 cells; type: functional, organism-based, Hepacivirus hominis
Hepatitis C virus [2] = test: Anti-viral activity against HCV genotype 2a infected in 2aLucNeo-25 cells; type: functional, organism-based, Hepacivirus hominis
[3] = Tmax in female mouse at 5 mg/kg, po by reverse phase chromatography; type: ADME, organism-based; settings: in vivo
[4] = Tmax in Cynomolgus monkey at 10 mg/kg, po administered for 7 days by reverse phase chromatography; type: ADME, organism-based, Macaca fascicularis; settings: in vivo, time 7 day
[5] = Cmax in female mouse at 1 mg/kg, iv by reverse phase chromatography; type: ADME, organism-based; settings: in vivo
[6] = Cmax in female mouse at 5 mg/kg, po by reverse phase chromatography; type: ADME, organism-based; settings: in vivo
[7] = Cmax in Sprague-Dawley rat at 1 mg/kg, iv by reverse phase chromatography; type: ADME, organism-based; settings: in vivo
[8] = Half life in female mouse at 5 mg/kg, po by reverse phase chromatography; type: ADME, organism-based; settings: in vivo
[9] = Half life in Cynomolgus monkey at 1 mg/kg, iv by reverse phase chromatography; type: ADME, organism-based, Macaca fascicularis; settings: in vivo
[10] = Volume of distribution in Cynomolgus monkey at 1 mg/kg, iv by reverse phase chromatography; type: ADME, organism-based, Macaca fascicularis; settings: in vivo
[11] = Clearance in female mouse at 1 mg/kg, iv by reverse phase chromatography; type: ADME, organism-based; settings: in vivo
[12] = Clearance in Cynomolgus monkey at 1 mg/kg, iv by reverse phase chromatography; type: ADME, organism-based, Macaca fascicularis; settings: in vivo
[13] = AUC in female mouse at 1 mg/kg, iv by reverse phase chromatography; type: ADME, organism-based; settings: in vivo
[14] = AUC in Sprague-Dawley rat at 5 mg/kg, po by reverse phase chromatography; type: ADME, organism-based; settings: in vivo
[15] = AUC in Cynomolgus monkey at 10 mg/kg, po administered for 7 days by reverse phase chromatography; type: ADME, organism-based, Macaca fascicularis; settings: in vivo, time 7 day
[16] = AUC (0 to infinity) in female mouse at 5 mg/kg, po by reverse phase chromatography; type: ADME, organism-based; settings: in vivo
[17] = AUC (0 to infinity) in Sprague-Dawley rat at 5 mg/kg, po by reverse phase chromatography; type: ADME, organism-based; settings: in vivo
[18] = AUC (0 to infinity) in Sprague-Dawley rat at 10 mg/kg, po by reverse phase chromatography; type: ADME, organism-based; settings: in vivo
[19] = AUC (0 to infinity) in Cynomolgus monkey at 1 mg/kg, iv by reverse phase chromatography; type: ADME, organism-based, Macaca fascicularis; settings: in vivo
[20] = AUC (0 to infinity) in Cynomolgus monkey at 10 mg/kg, po administered for 7 days by reverse phase chromatography; type: ADME, organism-based, Macaca fascicularis; settings: in vivo, time 7 day
[21] = Oral bioavailability in mouse at 5 mg/kg by reverse phase chromatography; type: ADME, organism-based; settings: in vivo
[22] = Oral bioavailability in Sprague-Dawley rat at 5 mg/kg by reverse phase chromatography; type: ADME, organism-based; settings: in vivo
[23] = Drug absorption in human Caco-2 cells; type: ADME, cell-based
[24] = Metabolic stability in Non human primate liver microsome assessed as half life in presence of NADPH; type: ADME; settings: liver microsomes
[25] = Metabolic stability in cryopreserved Non human primate hepatocyte assessed as half life in presence of NADPH; type: ADME, cell-based; settings: cryopreserved hepatocytes
[26] = Metabolic stability in cryopreserved human hepatocyte assessed as half life in presence of NADPH; type: ADME, cell-based; settings: cryopreserved hepatocytes
[27] = Genotoxicity in CD-1(ICR)BR mouse assessed as effect on bone marrow cells at 2000 mg/kg, po by micronucleus assay; type: toxicity, organism-based; settings: in vivo
[28] = Genotoxicity in mouse L5178Y cells assessed as increase in forward mutation at thymidine kinase locus measured after 4 hrs; type: toxicity, cell-based
[29] = Genotoxicity in mouse L5178Y cells assessed as increase in forward mutation at thymidine kinase locus; type: toxicity, cell-based
[30] = Toxicity in rat assessed as mortality at 1 to 9 mg/kg, po; type: organism-based; settings: in vivo, dose 1-9 mg/kg
[31] = Toxicity in rat assessed as effect on respiratory measures at 1 to 9 mg/kg, po; type: organism-based; settings: in vivo, dose 1-9 mg/kg
Hepatitis C virus [32] = test: Antiviral activity against Hepatitis C virus infected in Ava5 cells assessed as inhibition of viral RNA replication incubated for 72 hrs by RT-PCR analysis; type: functional, organism-based, Hepacivirus hominis; settings: Ava5, 72 h
[33] = Toxicity in Sprague-Dawley rat assessed as weight loss at 90 mg/kg, po administered as single dose and measured after 14 days; type: organism-based; settings: in vivo, 336 h, time 14 day
[34] = Toxicity in Sprague-Dawley rat assessed as weight loss at 150 mg/kg, po administered as single dose and measured after 14 days; type: organism-based; settings: in vivo, 336 h, time 14 day
[35] = Toxicity in Sprague-Dawley rat assessed as weight loss at 250 mg/kg, po administered as single dose and measured after 14 days; type: organism-based; settings: in vivo, 336 h, time 14 day
[36] = Toxicity in Sprague-Dawley rat assessed as piloerection at 90 mg/kg, po administered as single dose and measured after 14 days; type: organism-based; settings: in vivo, 336 h, time 14 day
[37] = Toxicity in Sprague-Dawley rat assessed as piloerection at 150 mg/kg, po administered as single dose and measured after 14 days; type: organism-based; settings: in vivo, 336 h, time 14 day
[38] = Toxicity in Sprague-Dawley rat assessed as lethargy at 150 mg/kg, po administered as single dose and measured after 14 days; type: organism-based; settings: in vivo, 336 h, time 14 day
[39] = Toxicity in Sprague-Dawley rat assessed as anogenital staining at 250 mg/kg, po administered as single dose and measured after 14 days; type: organism-based; settings: in vivo, 336 h, time 14 day
[40] = Toxicity in Sprague-Dawley rat assessed as eyes and nares staining at 90 mg/kg, po administered as single dose and measured after 14 days; type: organism-based; settings: in vivo, 336 h, time 14 day
[41] = Toxicity in Sprague-Dawley rat assessed as eyes and nares staining at 250 mg/kg, po administered as single dose and measured after 14 days; type: organism-based; settings: in vivo, 336 h, time 14 day
[42] = Toxicity in Sprague-Dawley rat assessed as diarrhea at 100 mg/kg, po administered as single dose and measured after 14 days; type: organism-based; settings: in vivo, 336 h, time 14 day
[43] = Toxicity in Sprague-Dawley rat assessed as macroscopic examination at necroscopy at 100 mg/kg, po administered as single dose and measured after 14 days; type: organism-based; settings: in vivo, 336 h, time 14 day
[44] = Toxicity in Sprague-Dawley rat assessed as macroscopic examination at necroscopy at 250 mg/kg, po administered as single dose and measured after 14 days; type: organism-based; settings: in vivo, 336 h, time 14 day
[45] = Toxicity in Sprague-Dawley rat assessed as animal death at 90 to 250 mg/kg, po administered as single dose and measured after 14 days; type: organism-based; settings: in vivo, 336 h, dose 90-250 mg/kg, time 14 day
[46] = Toxicity in cynomolgus monkey assessed as weight loss at 100 to 500 mg/kg, po administered as single dose; type: organism-based, Macaca fascicularis; settings: in vivo, dose 100-500 mg/kg
[47] = Toxicity in Cynomolgus monkey assessed as weight loss at 100 mg/kg, po administered twice a day; type: organism-based, Macaca fascicularis; settings: in vivo
[48] = Toxicity in Cynomolgus monkey assessed as change in ECG at 100 mg/kg, po administered twice a day; type: organism-based, Macaca fascicularis; settings: in vivo
[49] = Toxicity in Cynomolgus monkey assessed as emesis at 100 mg/kg, po administered as single dose; type: organism-based, Macaca fascicularis; settings: in vivo
[50] = Toxicity in Cynomolgus monkey assessed as emesis at 100 mg/kg, po administered twice a day; type: organism-based, Macaca fascicularis; settings: in vivo
[51] = Toxicity in Cynomolgus monkey assessed as animal death at 100 to 500 mg/kg, po administered as single dose; type: organism-based, Macaca fascicularis; settings: in vivo, dose 100-500 mg/kg
[52] = Toxicity in Cynomolgus monkey assessed as animal death at 100 mg/kg, po administered twice a day; type: organism-based, Macaca fascicularis; settings: in vivo

Q: Which EC50 (Hepatitis C virus [1]) does the source give for `C[C@@]1(O)[C@H](O)[C@@H](CO)O[C@H]1c1coc2c(N)ncnc12` here?
A: The EC50 was 5.4 µM.

Q: And the EC50 (Hepatitis C virus [2])?
A: Its EC50 is greater than 50 µM.

Q: What about the Tmax [3] of the same compound?
A: The Tmax was 0.5 h.

Q: What about the Tmax [4] of the same compound?
A: Its Tmax is 0.7 h.

Q: And the Cmax [5]?
A: Its Cmax is 1130 ng/mL.

Q: What about the Cmax [6] of the same compound?
A: Its Cmax is 1060 ng/mL.

Q: And the Cmax [7]?
A: The Cmax was 1150 ng/mL.

Q: And the half-life [8]?
A: Its half-life is 16.6 h.

Q: And the half-life [9]?
A: Its half-life is 24 h.

Q: What about the Vd [10] of the same compound?
A: The Vd was 8.67 L/kg.

Q: And the clearance [11]?
A: The clearance was 11.6 mL/min/kg.

Q: And the clearance [12]?
A: The clearance was 8.56 mL/min/kg.

Q: What about the AUC [13] of the same compound?
A: Its AUC is 866 ng·h/mL.

Q: What about the AUC [14] of the same compound?
A: The AUC was 1920 ng·h/mL.

Q: What about the AUC at 168 h [15] of the same compound?
A: Its AUC at 168 h is 7260 ng·h/mL.

Q: What about the AUC(0-inf) [16] of the same compound?
A: Its AUC(0-inf) is 4220 ng·h/mL.

Q: And the AUC(0-inf) [17]?
A: Its AUC(0-inf) is 2150 ng·h/mL.

Q: And the AUC(0-inf) [18]?
A: The AUC(0-inf) was 5650 ng·h/mL.

Q: What about the AUC(0-inf) [19] of the same compound?
A: Its AUC(0-inf) is 2340 ng·h/mL.

Q: What about the AUC(0-inf) [20] of the same compound?
A: Its AUC(0-inf) is 8010 ng·h/mL.

Q: And the bioavailability [21]?
A: Its bioavailability is 75%.

Q: And the bioavailability [22]?
A: The bioavailability was 55%.

Q: What about the Drug absorption [23] of the same compound?
A: Its Drug absorption is “Not_active”.

Q: What about the half-life [24] of the same compound?
A: The half-life was greater than 1.67 h.

Q: What about the half-life [25] of the same compound?
A: Its half-life is greater than 1 h.

Q: And the half-life [26]?
A: Its half-life is greater than 1 h.

Q: And the Activity [27]?
A: Its Activity is “Toxic”.

Q: What about the Activity [28] of the same compound?
A: Its Activity is “Toxic”.

Q: What about the Activity [29] of the same compound?
A: Its Activity is “Non-toxic”.

Q: What about the Activity [30] of the same compound?
A: Its Activity is “Non-toxic”.

Q: What about the Activity [31] of the same compound?
A: The Activity was “Non-toxic”.

Q: And the EC50 (Hepatitis C virus [32])?
A: The EC50 was 6.5 µM.

Q: What about the Activity [33] of the same compound?
A: Its Activity is “Toxic”.

Q: And the Activity [34]?
A: The Activity was “Toxic”.

Q: What about the Activity [35] of the same compound?
A: The Activity was “Non-toxic”.

Q: And the Activity [36]?
A: Its Activity is “Non-toxic”.

Q: And the Activity [37]?
A: The Activity was “Toxic”.

Q: What about the Activity [38] of the same compound?
A: Its Activity is “Toxic”.

Q: What about the Activity [39] of the same compound?
A: The Activity was “Non-toxic”.

Q: What about the Activity [40] of the same compound?
A: The Activity was “Non-toxic”.

Q: And the Activity [41]?
A: Its Activity is “Non-toxic”.

Q: And the Activity [42]?
A: Its Activity is “Non-toxic”.

Q: What about the Activity [43] of the same compound?
A: The Activity was “Non-toxic”.

Q: And the Activity [44]?
A: Its Activity is “Toxic”.

Q: What about the Activity [45] of the same compound?
A: Its Activity is “Non-toxic”.

Q: And the Activity [46]?
A: Its Activity is “Non-toxic”.

Q: And the Activity [47]?
A: The Activity was “Non-toxic”.

Q: And the Activity [48]?
A: Its Activity is “Non-toxic”.

Q: What about the Activity [49] of the same compound?
A: The Activity was “Non-toxic”.

Q: And the Activity [50]?
A: The Activity was “Non-toxic”.

Q: And the Activity [51]?
A: The Activity was “Non-toxic”.

Q: What about the Activity [52] of the same compound?
A: Its Activity is “Non-toxic”.
